In patent publication US9605002B2, “5,5-heteroaromatic anti-infective compounds” (priority 2012, dated 2017):
Values joined by “and” are separate entries in the source; they are usually repeats but may differ in a detail not shown here. Equal values may be shown once.

What was measured:
Assay in all cases: MIC against clinical Mtb strains
Type in all cases: cell-based
Details in all cases: Mycobacterium tuberculosis
[1] = system: MDR-TB resistant to HRERb
[2] = system: XDR-TB resistant to HREKO
[3] = system: MDR-TB resistant to HREZSKP
[4] = system: MDR-TB resistant to HREKP
[5] = system: XDR-TB resistant to HRESKO

Structure (SMILES) | MIC90 [1] | MIC90 [2] | MIC90 [3] | MIC90 [4] | MIC90 [5]
Cc1cn2c(C(=O)NCc3ccc(Oc4ccc(F)cc4)cc3)c(C)nc2s1 [ND-010081] | 0.63 µM and 1.6 µg/mL | < 0.01 µM and < 0.025 µg/mL | 0.02 µM to 10 µM and 0.05 µg/mL to 25 µg/mL | < 0.01 µM and < 0.025 µg/mL | < 0.01 µM and < 0.025 µg/mL
O=[N+]([O-])c1cn2c(n1)OC[C@@H](OCc1ccc(OC(F)(F)F)cc1)C2 [PA-824, reference compound] | 0.45 µM to 0.86 µM and 0.16 µg/mL to 0.31 µg/mL | 0.22 µM and 0.08 µg/mL | 0.45 µM to 0.86 µM and 0.16 µg/mL to 0.31 µg/mL | 0.45 µM to 0.86 µM and 0.16 µg/mL to 0.31 µg/mL | 0.86 µM and 0.31 µg/mL
